Columns and labels:
Format in all cases: in vivo
Setaria faberi (SETFA) [1] = assay: Post-emergence biological efficacy, glasshouse pot test; details: 312 h
How it was run: (§1)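 Plants were sown in standard soil and grown 8 days in a glasshouse (24/16° C. day/night, 14 hours light, 65% humidity), then sprayed post-emergence at 1000 or 250 g/ha from acetone/water (50:50) with 0.5% Tween 20. Damage was scored visually after 13 days (0 = none, 100 = total).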

Solanum nigrum (SOLNI) [2] = assay: as above; details: 312 h
How it was run: as §1

[3] = tested on: Echinochloa crus-galli (ECHCG); assay: as above; details: 312 h
How it was run: as §1

[4] = tested on: Alopecurus myosuroides (ALOMY); assay: as above; details: 312 h
How it was run: as §1

[5] = tested on: Amaranthus retoflexus (AMARE); assay: as above; details: Amaranthus retroflexus, 312 h
How it was run: as §1

[6] = tested on: Ipomea hederaceae (IPOHE); assay: as above; details: Ipomoea hederacea, 312 h
How it was run: as §1

Setaria faberi (SETFA) [7] = assay: Pre-emergence biological efficacy, glasshouse pot test; details: 312 h
How it was run: (§2)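 Compound was applied as a spray one day after sowing, at a final dose of 1000 or 250 g/ha. Plants grew under 14 h light, 24/16 °C and 65% humidity, and injury was assessed on day 13 on a 0–100 scale.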

Solanum nigrum (SOLNI) [8] = assay: as above; details: 312 h
How it was run: as §2

[9] = tested on: Echinochloa crus-galli (ECHCG); assay: as above; details: 312 h
How it was run: as §2

[10] = tested on: Alopecurus myosuroides (ALOMY); assay: as above; details: 312 h
How it was run: as §2

[11] = tested on: Amaranthus retoflexus (AMARE); assay: as above; details: Amaranthus retroflexus, 312 h
How it was run: as §2

[12] = tested on: Ipomea hederaceae (IPOHE); assay: as above; details: Ipomoea hederacea, 312 h
How it was run: as §2

[13] = Rate 1,000 g/ha, post-emergence spray, evaluated after 13 days (100=total damage to plant; 0=no damage to plant), read-out: Percentage damage caused to weed species, post-emergence, SETFA
[14] = Rate 1,000 g/ha, post-emergence spray, evaluated after 13 days (100=total damage to plant; 0=no damage to plant), read-out: Percentage damage caused to weed species, post-emergence, SOLNI
[15] = Rate 1,000 g/ha, post-emergence spray, evaluated after 13 days (100=total damage to plant; 0=no damage to plant), read-out: Percentage damage caused to weed species, post-emergence, ECHCG
[16] = Rate 1,000 g/ha, post-emergence spray, evaluated after 13 days (100=total damage to plant; 0=no damage to plant), read-out: Percentage damage caused to weed species, post-emergence, ALOMY
[17] = Rate 1,000 g/ha, post-emergence spray, evaluated after 13 days (100=total damage to plant; 0=no damage to plant), read-out: Percentage damage caused to weed species, post-emergence, AMARE
[18] = Rate 1,000 g/ha, post-emergence spray, evaluated after 13 days (100=total damage to plant; 0=no damage to plant), read-out: Percentage damage caused to weed species, post-emergence, IPOHE
[19] = pre-emergence, rate 1,000 g/ha, evaluated after 13 days (100=total damage to plant; 0=no damage), read-out: Percentage damage caused to weed species, SETFA
[20] = pre-emergence, rate 1,000 g/ha, evaluated after 13 days (100=total damage to plant; 0=no damage), read-out: Percentage damage caused to weed species, SOLNI
[21] = pre-emergence, rate 1,000 g/ha, evaluated after 13 days (100=total damage to plant; 0=no damage), read-out: Percentage damage caused to weed species, ECHCG
[22] = pre-emergence, rate 1,000 g/ha, evaluated after 13 days (100=total damage to plant; 0=no damage), read-out: Percentage damage caused to weed species, ALOMY
[23] = pre-emergence, rate 1,000 g/ha, evaluated after 13 days (100=total damage to plant; 0=no damage), read-out: Percentage damage caused to weed species, AMARE
[24] = pre-emergence, rate 1,000 g/ha, evaluated after 13 days (100=total damage to plant; 0=no damage), read-out: Percentage damage caused to weed species, IPOHE
[25] = post-emergence, 1,000 g/ha, evaluated after 13 days (100=total damage; 0=no damage), read-out: Percentage damage caused to weed species, SETFA
[26] = post-emergence, 1,000 g/ha, evaluated after 13 days (100=total damage; 0=no damage), read-out: Percentage damage caused to weed species, SOLNI
[27] = post-emergence, 1,000 g/ha, evaluated after 13 days (100=total damage; 0=no damage), read-out: Percentage damage caused to weed species, ECHCG
[28] = post-emergence, 1,000 g/ha, evaluated after 13 days (100=total damage; 0=no damage), read-out: Percentage damage caused to weed species, ALOMY
[29] = post-emergence, 1,000 g/ha, evaluated after 13 days (100=total damage; 0=no damage), read-out: Percentage damage caused to weed species, AMARE
[30] = post-emergence, 1,000 g/ha, evaluated after 13 days (100=total damage; 0=no damage), read-out: Percentage damage caused to weed species, IPOHE
[31] = pre-emergence, 1,000 g/ha, evaluated after 13 days (100=total damage; 0=no damage), read-out: Percentage damage SETFA
[32] = pre-emergence, 1,000 g/ha, evaluated after 13 days (100=total damage; 0=no damage), read-out: Percentage damage SOLNI
[33] = pre-emergence, 1,000 g/ha, evaluated after 13 days (100=total damage; 0=no damage), read-out: Percentage damage ECHCG
[34] = pre-emergence, 1,000 g/ha, evaluated after 13 days (100=total damage; 0=no damage), read-out: Percentage damage ALOMY
[35] = pre-emergence, 1,000 g/ha, evaluated after 13 days (100=total damage; 0=no damage), read-out: Percentage damage AMARE
[36] = pre-emergence, 1,000 g/ha, evaluated after 13 days (100=total damage; 0=no damage), read-out: Percentage damage IPOHE

| Compound | pest or weed control at 1000 g/ha (Setaria faberi (SETFA) [1]; [13]) | pest or weed control at 1000 g/ha (Solanum nigrum (SOLNI) [2]; [14]) | pest or weed control at 1000 g/ha [3, 15] | pest or weed control at 1000 g/ha [4, 16] | pest or weed control at 1000 g/ha [5, 17] | pest or weed control at 1000 g/ha [6, 18] | pest or weed control at 1000 g/ha (Setaria faberi (SETFA) [7]; [19]) | pest or weed control at 1000 g/ha (Solanum nigrum (SOLNI) [8]; [20]) | pest or weed control at 1000 g/ha [9, 21] | pest or weed control at 1000 g/ha [10, 22] | pest or weed control at 1000 g/ha [11, 23] | pest or weed control at 1000 g/ha [12, 24] | pest or weed control at 1000 g/ha (Setaria faberi (SETFA) [1]; [25]) | pest or weed control at 1000 g/ha (Solanum nigrum (SOLNI) [2]; [26]) | pest or weed control at 1000 g/ha [3, 27] | pest or weed control at 1000 g/ha [4, 28] | pest or weed control at 1000 g/ha [5, 29] | pest or weed control at 1000 g/ha [6, 30] | pest or weed control at 1000 g/ha (Setaria faberi (SETFA) [7]; [31]) | pest or weed control at 1000 g/ha (Solanum nigrum (SOLNI) [8]; [32]) | other results |
| --- | --- | --- | --- | --- | --- | --- | --- | --- | --- | --- | --- | --- | --- | --- | --- | --- | --- | --- | --- | --- | --- |
| COC(=O)c1nc(-c2ccc(Cl)c([N+](=O)[O-])c2)nc(NCc2ccco2)c1Cl [Compound 219-48, 5-Chloro-2-(4-chloro-3-nitrophenyl)-4-(furan-2-yl-methyl-amino)-6-methoxycarbonyl-pyrimidine] | 20% | 30% | 0% | 0% | 20% | 0% | 0% | 0% | 0% | 0% | 20% | 0% | – | – | – | – | – | – | – | – | – |
| COC(=O)c1nc(C2CC2)nc(NC2(/C=C/c3c(F)cccc3F)CC2)c1Cl [Compound 4-26, 5-Chloro-2-cyclopropyl-4-{1-[2-(2,6-difluoro-phenyl)ethenyl]-cyclopropylamino}-6-methoxy-carbonylpyrimidine] | – | – | – | – | – | – | – | – | – | – | – | – | 60% | 70% | 20% | 20% | 100% | 90% | 0% | 20% | pest or weed control at 1000 g/ha [9, 33]: 0%; pest or weed control at 1000 g/ha [10, 34]: 10%; pest or weed control at 1000 g/ha [11, 35]: 20%; pest or weed control at 1000 g/ha [12, 36]: 50% |
| COC(=O)c1nc(C2CC2)nc(NCc2ccsc2Br)c1Cl [Compound 4-143, 4-(2-Bromothiophen-3-ylmethylamino)-5-chloro-2-cyclopropyl-6-methoxycarbonyl-pyrimidine] | – | – | – | – | – | – | – | – | – | – | – | – | 70% | 90% | 60% | 20% | 90% | 100% | 0% | 50% | pest or weed control at 1000 g/ha [9, 33]: 20%; pest or weed control at 1000 g/ha [10, 34]: 0%; pest or weed control at 1000 g/ha [11, 35]: 70%; pest or weed control at 1000 g/ha [12, 36]: 80% |
| COC(=O)c1nc(-c2cc(F)c(Cl)c(F)c2)nc(NCc2ccco2)c1Cl [Compound 232-48, 5-Chloro-2-(4-chloro-3,5-difluorophenyl)-4-(furan-2-ylmethyl-amino)-6-methoxy-carbonylpyrimidine] | 0% | 60% | 0% | 0% | 20% | 10% | 0% | 0% | 0% | 0% | 0% | 0% | – | – | – | – | – | – | – | – | – |
| O=C(O)c1nc(C2CC2)nc(NC2CCCC2)c1Cl [Compound 1-33, 5-Chloro-2-cyclopropyl-4-cyclopentylamino-pyrimidine-6-carboxylic acid] | – | – | – | – | – | – | – | – | – | – | – | – | 80% | 80% | 20% | 30% | 100% | 70% | 50% | 80% | pest or weed control at 1000 g/ha [9, 33]: 30%; pest or weed control at 1000 g/ha [10, 34]: 30%; pest or weed control at 1000 g/ha [11, 35]: 80%; pest or weed control at 1000 g/ha [12, 36]: 70% |
| CCCN(Cc1ccccc1F)c1nc(C2CC2)nc(C(=O)OC)c1Cl [Compound 145-64, 5-Chloro-2-cyclopropyl-4-[N-(2-fluorophenylmethyl)-N-prop-1-yl-amino]-6-methoxy-carbonylpyrimidine] | 40% | 80% | 30% | 0% | 90% | 70% | 0% | 70% | 0% | 0% | 70% | 70% | – | – | – | – | – | – | – | – | – |
| COC(=O)c1nc(C2CC2)nc(NCc2c(Cl)cccc2Cl)c1Cl [Compound 4-104, 5-Chloro-2-cyclopropyl-4-(2,6-dichlorophenyl-methylamino)-6-methoxycarbonyl-pyrimidine] | – | – | – | – | – | – | – | – | – | – | – | – | 90% | 90% | 90% | 20% | 100% | 100% | 0% | 30% | pest or weed control at 1000 g/ha [9, 33]: 20%; pest or weed control at 1000 g/ha [10, 34]: 10%; pest or weed control at 1000 g/ha [11, 35]: 40%; pest or weed control at 1000 g/ha [12, 36]: 20% |
| COC(=O)c1nc(-c2ccc(Cl)c(C(F)(F)F)c2F)nc(NCc2ccco2)c1Cl [Compound 230-48, 5-Chloro-2-(4-chloro-2-fluoro-3-trifluoro-methylphenyl)-4-(furan-2-ylmethyl-amino)-6-methoxy-carbonylpyrimidine] | 70% | 80% | 90% | 30% | 100% | 60% | 50% | 70% | 20% | 30% | 70% | 50% | – | – | – | – | – | – | – | – | – |

From US20110086759A1, “CHEMICAL COMPOUNDS” (SYNGENTA CROP PROTECTION, INC., priority 2007, published 2011)
